Results: publication PMC4537050, “A long pentraxin-3-derived pentapeptide for the therapy of FGF8b-driven steroid hormone-regulated cancers” (Oncotarget, 2015)

What was measured:
FGF8b = target: T1, FGF8b (Homo sapiens, UniProt P55075); experiment: SPR analysis of peptide binding to immobilized FGF8b; set-up: purchased PeproTech; details: for Kd / FGF8b binding (Kd): SPR, immobilized FGF8b, mean ± SEM; for FGF8b binding activity (in words): SPR on the FGF8b-coated sensor chip
T1 sequence (P55075 23-215 isoform P55075-3 limits assumed): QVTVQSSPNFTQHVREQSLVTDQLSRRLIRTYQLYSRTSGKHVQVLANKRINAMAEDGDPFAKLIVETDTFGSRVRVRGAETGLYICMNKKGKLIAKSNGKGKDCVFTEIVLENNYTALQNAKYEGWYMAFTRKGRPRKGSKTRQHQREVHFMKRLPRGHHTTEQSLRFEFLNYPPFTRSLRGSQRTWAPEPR
Method: A BIAcore X-100 apparatus (BIAcore Inc., Piscataway, NJ, USA) was used to set up the following experimental models. ARPCA and all the peptides mentioned in the present work were analyzed for their capacity to directly bind to immobilized FGF8b. To this purpose, FGF8b (20 μg/ml in 10 mM sodium acetate, pH 6.0) was allowed to react with a flow cell of a CM5 sensor chip that was previously activated with a mixture of 0.2 M N-ethyl-N′-(3-dimethylaminopropyl)-carbodiimide hydrochloride and 0.05 M N-hydroxysuccinimide (35 μl, flow rate 10 μl/min). After ligand immobilization, matrix neutralization was performed with 1.0 M ethanolamine (pH 8.5) (35 μl, flow rate 10 μl/min) and the activated/deactivated dextran was used as reference (control) system. Increasing concentrations of ARPCA (ranging between 8 μM and 2000 μM) were injected over the FGF8b-coated sensor chip and the response was recorded as a function of time tracking the SPR intensity change upon binding progression. Injection lasted for 4 min (flow rate 30 μl/min) to allow peptide association to immobilized FGF8b and was followed by 10 min of dissociation; each run was performed in HBS and the sensor chip was regenerated with 10 mM NaOH. […] Binding isotherm points were fitted with the Langmuir equation for monovalent binding. This allowed to evaluate the mass surface dissociation constant, Kd, and the scaling parameter that relates the SPR signal with the extent of binding, as the free parameters of the fitting. The errors on these parameters were assigned as a result of the fitting algorithm (95% confidence bounds). The best-fitting procedure was performed with the SigmaPlot 11.0 software package (Systat Software Inc.). Others FGFs were dissolved in 10mM sodium acetate at optimal pH, immobilized on CM5 sensorchips and tested for their capacity to bind ARPCA as described above.

S115 cells = experiment: S115 cell proliferation assay; type: cell-based, mouse; details: 30 ng/ml FGF8b or 10 nM DHT, 48 h, viable cell counting
Method: (§1) HUVECs were seeded at 18000 cells/cm^2 in medium containing 2.5% FBS and stimulated with 30 ng/ml FGF8b in the absence or presence of increasing concentrations of ARPCA or ARPVA. S115 cells were seeded at 15000 cells/cm^2 in medium containing 4% hormone-deprived dextran-coated charcoal-stripped heat inactivated FBS, followed by 24 h serum starvation in 1:1 mixture of serum-free Ham's F12 and DMEM. Cells were stimulated for 48 h with 30 ng/ml FGF8b or 10 nM DHT in the presence or absence of different concentrations of ARPCA or ARPVA (as specified in the corresponding figures). Viable cell counts were obtained by the counting function of the MACSQuant® Analyzer (Miltenyi Biotec, Bergisch-Gladbach, Germany, EU).

[1] = tested on: S115 cells grafted onto the chick embryo CAM; experiment: CAM assay with DHT-treated S115 cell grafts; type: in vivo; details: 2.5 × 10^4 cells/embryo; ARPCA 80 or 140 pmoles/embryo, ARPVA 140 pmoles/embryo; day 14
Method: (§2) Alginate plugs containing vehicle, FGF8b (4.5 pmoles/embryo), VEGF-A (4.5 pmoles/embryo) or S115 cells (2.5×10^4/embryo) in the absence or presence of ARPCA (80 or 140 pmoles/embryo) or ARPVA (140 pmoles/embryo) were placed on the CAM of fertilized white leghorn chicken eggs at day 11 of incubation. At day 14, newly formed blood microvessels converging toward the implant were counted by two observers in a double-blind fashion at 5x magnification under a stereomicroscope (STEMI-SR, x2/0.12; Zeiss) as described.

HUVECs = experiment: HUVEC proliferation in response to FGF8b; type: cell-based, human; details: 30 ng/ml FGF8b, 48 h, concentrations as high as 300 μM
Method: as §1

[2] = tested on: chick embryo chorioallantoic membrane (CAM); experiment: Chick embryo CAM assay with growth factor alginate implants; type: in vivo; details: 4.5 pmoles FGF8b/plug; ARPCA 80 or 140 pmoles, ARPVA 140 pmoles; vessels counted at day 14
Method: as §2

For Ac-APCRA-NH2 [Ac-APCRA-NH2], the Kd (FGF8b) was > 3 mM.
For Ac-ARACA-NH2 [Ac-ARACA-NH2], the “FGF8b binding activity (in words)” value (FGF8b) was “activity was lost” and the Kd (FGF8b) was > 3 mM.
Ac-ARGCA-NH2 [Ac-ARGCA-NH2] was tested, and the “FGF8b binding activity (in words)” value (FGF8b) was “activity was lost” and the Kd (FGF8b) was > 3 mM.
With Ac-ARPCG-NH2 [Ac-ARPCG-NH2] the “FGF8b binding activity (in words)” value (FGF8b) was “dramatically reduced” and the Kd (FGF8b) was 1.9 ± 0.2 mM.
For Ac-ARPMA-NH2 [Ac-ARPMA-NH2], the “FGF8b binding activity (in words)” value (FGF8b) was “activity was lost” and the Kd (FGF8b) was > 3 mM.
Ac-ARPSA-NH2 [Ac-ARPSA-NH2] was tested, and the “FGF8b binding activity (in words)” value (FGF8b) was “activity was lost” and the “FGF8b binding (Kd)” value (FGF8b) was “nb”.
With “Ac-ARPVA-NH2 [Cys4-replaced ARPCA pentapeptide mutant used as a negative control, reference compound]” the “mitogenic response of S115 cells to FGF8b or DHT” value (S115 cells) was “ineffective”, the “neovascular response elicited by DHT-pretreated S115 cells on the CAM” value [1] was “no effect” and the “FGF8b binding activity (in words)” value (FGF8b) was “activity was lost”. For the same substance, the “FGF8b binding (Kd)” value (FGF8b) was “nb”, the “effect on HUVEC proliferation in response to FGF8b (in words)” value (HUVECs) was “no significant effect” and the “angiogenic response elicited by FGF8b in the CAM” value [2] was “No inhibitory effect”.
With Ac-GRPCG-NH2 [Ac-GRPCG-NH2] the “FGF8b binding activity (in words)” value (FGF8b) was “dramatically reduced” and the Kd (FGF8b) was > 3 mM.
H-ARPCA-NH2 [H-ARPCA-NH2] was tested, and the “FGF8b binding activity (in words)” value (FGF8b) was “dramatically reduced” and the Kd (FGF8b) was 2.9 ± 0.55 mM.
